Laboratory results from patent US20240270821A1, “GIP/GLP1/GCG TRI-RECEPTOR AGONISTS AND USES THEREOF” (priority 2023, published 2024).
Like-named read-outs stand apart in the source and are kept apart here. Starred links: 1 amine or outer side, 2 acyl side, 3 side chain; linkers in the order of their positions; H or OH if unused. Non-standard residues stand in square brackets, D forms with d. Groups on a side chain read outwards from the residue. *: point of attachment. C20 diacid = O=C(O)CCCCCCCCCCCCCCCCCCC(=O)*; C18 diacid = O=C(O)CCCCCCCCCCCCCCCCC(=O)*; γGlu = O=C(O)[C@H](CCC(=O)[*:2])N[*:1]; αMe4Pal = C[C@](N)(Cc1ccncc1)C(=O)O; αMeL = CC(C)C[C@](C)(N)C(=O)O; AEEA = NCCOCCOCC(=O)O; Aib = CC(C)(N)C(=O)O

Columns and labels:
Assay type in all cases: cell-based
hGIPR [1] = target: T1, hGIPR (Homo sapiens, UniProt P48546); assay: Functional cAMP activity in the presence of 1% HSA
T1 sequence (P48546 22-466): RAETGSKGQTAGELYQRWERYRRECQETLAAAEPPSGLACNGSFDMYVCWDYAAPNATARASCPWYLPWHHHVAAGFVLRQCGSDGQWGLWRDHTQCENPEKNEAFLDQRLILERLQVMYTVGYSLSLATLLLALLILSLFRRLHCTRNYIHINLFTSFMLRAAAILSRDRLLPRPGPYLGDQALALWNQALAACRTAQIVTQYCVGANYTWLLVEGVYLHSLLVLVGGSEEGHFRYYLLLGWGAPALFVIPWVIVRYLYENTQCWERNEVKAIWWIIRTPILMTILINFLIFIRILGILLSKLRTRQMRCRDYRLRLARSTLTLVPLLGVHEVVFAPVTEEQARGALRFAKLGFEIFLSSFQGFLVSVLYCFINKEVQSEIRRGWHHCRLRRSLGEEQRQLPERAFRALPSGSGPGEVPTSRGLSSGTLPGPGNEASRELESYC

hGIPR [2] = target: T1, hGIPR; assay: Functional cAMP activation in the presence of 0.1% casein (no HSA);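 on Relative cAMP EC50, hGIPR: intracellular cAMP rise after 30 min at 37 °C read by HTRF against a standard curve, scaled between buffer alone (0%) and top control ligand concentration (100%), four-parameter fit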;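 on Relative cAMP EC50, hGLP-1R: intracellular cAMP rise after 30 min at 37 °C read by HTRF, normalized between buffer only (0%) and maximal control ligand (100%), four-parameter variable-slope fit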;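 on Relative cAMP EC50, hGcgR: intracellular cAMP rise after 30 min at 37 °C, read by HTRF against a cAMP standard curve, scaled from buffer only (0%) to maximal control ligand response (100%)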
hGcgR = hGcgR (Homo sapiens, UniProt P47871); assay: as above;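 further: intracellular cAMP rise after 30 min at 37 °C, read by HTRF against a cAMP standard curve, scaled from buffer only (0%) to maximal control ligand response (100%)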
Chain of hGcgR (P47871 26-477): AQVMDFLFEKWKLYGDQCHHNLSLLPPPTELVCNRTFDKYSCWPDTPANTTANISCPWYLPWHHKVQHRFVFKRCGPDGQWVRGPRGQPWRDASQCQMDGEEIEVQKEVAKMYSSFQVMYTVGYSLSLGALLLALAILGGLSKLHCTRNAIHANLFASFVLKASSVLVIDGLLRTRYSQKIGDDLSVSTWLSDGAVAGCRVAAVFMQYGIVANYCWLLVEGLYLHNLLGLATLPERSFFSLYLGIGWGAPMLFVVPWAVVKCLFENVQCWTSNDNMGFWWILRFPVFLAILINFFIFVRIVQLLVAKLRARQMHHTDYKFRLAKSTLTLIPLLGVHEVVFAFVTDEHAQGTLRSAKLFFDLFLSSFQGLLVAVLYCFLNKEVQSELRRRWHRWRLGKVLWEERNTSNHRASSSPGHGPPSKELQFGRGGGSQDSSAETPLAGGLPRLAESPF

hGLP-1R [3] = target: T2, hGLP-1R (Homo sapiens, UniProt P43220); assay: Functional cAMP activity in the presence of 1% HSA
T2 sequence (P43220 24-463): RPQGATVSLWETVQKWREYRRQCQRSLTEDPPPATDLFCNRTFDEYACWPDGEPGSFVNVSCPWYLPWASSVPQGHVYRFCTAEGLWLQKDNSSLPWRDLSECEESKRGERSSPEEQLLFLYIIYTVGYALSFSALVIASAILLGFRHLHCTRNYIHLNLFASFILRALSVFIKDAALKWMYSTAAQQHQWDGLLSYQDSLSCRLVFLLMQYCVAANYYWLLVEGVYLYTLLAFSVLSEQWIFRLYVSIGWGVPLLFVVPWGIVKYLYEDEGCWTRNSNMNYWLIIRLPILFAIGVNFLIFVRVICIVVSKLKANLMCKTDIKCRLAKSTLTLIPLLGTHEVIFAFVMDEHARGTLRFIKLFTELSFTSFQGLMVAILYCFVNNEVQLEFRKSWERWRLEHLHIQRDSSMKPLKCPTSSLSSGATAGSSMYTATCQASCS

human GcgR = human GcgR (Homo sapiens, UniProt P47871); assay: Functional cAMP activity in the presence of 1% HSA
Chain of human GcgR (P47871 26-477): as the sequence (P47871 26-477) above

hGLP-1R [4] = target: T2, hGLP-1R; assay: Functional cAMP activation in the presence of 0.1% casein (no HSA);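 on Relative cAMP EC50, hGIPR: intracellular cAMP rise after 30 min at 37 °C read by HTRF against a standard curve, scaled between buffer alone (0%) and top control ligand concentration (100%), four-parameter fit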;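 on Relative cAMP EC50, hGLP-1R: intracellular cAMP rise after 30 min at 37 °C read by HTRF, normalized between buffer only (0%) and maximal control ligand (100%), four-parameter variable-slope fit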;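 on Relative cAMP EC50, hGcgR: intracellular cAMP rise after 30 min at 37 °C, read by HTRF against a cAMP standard curve, scaled from buffer only (0%) to maximal control ligand response (100%)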
human GLP1-R = human GLP1-R (Homo sapiens, UniProt P43220); assay: GLP1-R internalization assay in HEK293 cells; details: for Internalization % TOP: normalized to maximum concentration of GLP-1 (100%)
Chain of human GLP1-R (P43220 24-463): as the sequence (P43220 24-463) above

[5] = in the presence of 0.1% casein (no HSA), geometric mean, read-out: Relative cAMP EC50, hGIPR
[6] = in the presence of 0.1% casein (no HSA), geometric mean, read-out: Relative cAMP EC50, hGcgR
[7] = read-out: cAMP Rel EC50, hGLP-1R
[8] = in the presence of 0.1% casein (no HSA), geometric mean, read-out: Relative cAMP EC50, hGLP-1R
[9] = HEK293 cells expressing SNAP-GLP-1R, read-out: GLP1R Internalization EC50

Substance | EC50 (hGIPR [1]; read-out: cAMP Rel EC50, hGIPR) | EC50 (hGIPR [2]; [5]) | EC50 (hGcgR; [6]) | EC50 (hGLP-1R [3]; [7]) | EC50 (human GcgR; read-out: cAMP Rel EC50, hGcgR) | EC50 (hGLP-1R [4]; [8]) | EC50 (human GLP1-R; [9]) | Internalization % TOP (human GLP1-R) | EC50 (hGIPR [1]) | EC50 (hGIPR [2]) | EC50 (hGcgR) | EC50 (hGLP-1R [3]) | EC50 (human GcgR) | EC50 (hGLP-1R [4]) | EC50 (human GLP1-R)
H-Y[Aib]QGTFTSDFSK[αMeL]LDKK([AEEA-γGlu-C20 diacid])AQ[Aib]AFIEYLLAGGPSSGEPPPSEG[AEEA]-NH2 [Example 32] | 66.1 nM | 0.28 nM | 11.6 nM | 422 nM | 1440 nM | 2.55 nM | 86.1 nM | 64.4% | – | – | – | – | – | – | –
H-Y[Aib]QGTFTSDFSK[αMeL]LDKK([AEEA-γGlu-C20 diacid])AQ[Aib]AFIEYLLAGGPSSGEPPPSGE[AEEA]-NH2 [Example 33] | 70.7 nM | 0.285 nM | 7.04 nM | 436 nM | 1310 nM | 1.71 nM | 106 nM | 64.6% | – | – | – | – | – | – | –
H-Y[Aib]QGTFTSDFSK[αMeL]LDKK([AEEA-γGlu-C20 diacid])AQ[Aib]AFIEYLLAGGPSSGEPPPSGS-NH2 [Example 8] | 39.4 nM | 0.231 nM | 6.65 nM | 603 nM | 1560 nM | 2.11 nM | 63.2 nM | 74% | – | – | – | – | – | – | –
H-Y[Aib]QGTFTSDFSK[αMeL]LDKK([AEEA-γGlu-C20 diacid])AQ[Aib]AFIEYLLAGGPSSGEPPPSSG-NH2 [Example 7] | 50.6 nM | 0.203 nM | 5.05 nM | 494 nM | 1210 nM | 2.11 nM | 52.6 nM | 76.3% | – | – | – | – | – | – | –
H-Y[Aib]QGTFTSDFSK[αMeL]LDKK([AEEA-γGlu-C20 diacid])AQ[Aib]AFIEYLLEGGPSSGAPPPGGS-NH2 [Example 18] | 59.6 nM | 0.337 nM | 2.7 nM | 561 nM | 1210 nM | 2.31 nM | 91.8 nM | 74.1% | – | – | – | – | – | – | –
H-Y[Aib]QGTFTSDFSK[αMeL]LDKK([AEEA-γGlu-C20 diacid])AQ[Aib]AFIEYLLE[Aib]GPSSGAPPPGGS-NH2 [Example 43] | 29.6 nM | 0.101 nM | 2.71 nM | 539 nM | 850 nM | 1.55 nM | 58.2 nM | 68.3% | – | – | – | – | – | – | –
H-Y[Aib]QGTFTSDFSK[αMeL]LDKK([AEEA-γGlu-C20 diacid])AQ[Aib]AFIEYLLE[Aib]GPSSGAPPPSGS-NH2 [Example 45] | 33.4 nM | 0.112 nM | 2.08 nM | 493 nM | 879 nM | 1.52 nM | 52.6 nM | 62.1% | – | – | – | – | – | – | –
H-Y[Aib]QGTFTSDFSK[αMeL]LDKK([AEEA-γGlu-C20 diacid])AQ[Aib]AFIEYLLE[Aib]GPSSGAPPPSSG-NH2 [Example 44] | – | – | – | – | – | – | 51.5 nM | 65% | 35.9 nM | 0.116 nM | 2.46 nM | 591 nM | 1050 nM | 1.66 nM | –
H-Y[Aib]QGTFTSDFSK[αMeL]LDKK([γGlu-γGlu-C18 diacid])AQ[Aib]AFIEYLLEGGPSSGAPPPSEG-NH2 [Example 58] | 3.75 nM | 0.175 nM | 4.86 nM | 20.7 nM | 115 nM | 2.93 nM | 56.2 nM | 78.1% | – | – | – | – | – | – | –
H-Y[Aib]QGTFTSDFSQ[αMeL]LDKK([AEEA-γGlu-C18 diacid])AQ[αMe4Pal]AFIEYLIE[Aib]GESSGAPPPSGE-NH2 [Example 233] | – | – | – | – | – | – | – | 41.8% | 28.1 nM | 0.0884 nM | 2.25 nM | 223 nM | 453 nM | 0.874 nM | 24.8 nM
H-Y[Aib]QGTFTSDFSR[αMeL]LDKK([AEEA-AEEA-γGlu-C18 diacid])AQ[Aib]AFIEYLLE[Aib]GPSSGAPPPSGS-NH2 [Example 80] | – | – | – | – | – | – | – | 48.2% | 10.1 nM | 0.0593 nM | 7.44 nM | 627 nM | 1190 nM | 2.55 nM | 35.8 nM
H-Y[Aib]QGTFTSDFSR[αMeL]LDKK([AEEA-γGlu-C18 diacid])AQ[Aib]AFIEYLLE[Aib]GPSSGAPPPSGS-NH2 [Example 79] | – | – | – | – | – | – | – | 45.3% | 14.3 nM | 0.0773 nM | 3.08 nM | 437 nM | 903 nM | 1.8 nM | 56.6 nM
